Source: US9862761B2, “Composition and method for preventing or treating a tauopathy” (The Board of Trustees of the University of Illinois, priority 2009, dated 2018)
Read-outs that look alike come from different tables or passages of the source. Square brackets hold non-standard residues; d marks the D form. Ends that are not written are not given here. pS = N[C@@H](COP(=O)(O)O)C(=O)O

Columns and labels:
[1] = test system: kinesin-1 associated with vesicles; assay: Motor proteins on membrane vesicle fractions purified from squid axoplasms; details: 40 minutes incubation
Protocol: After 40 minutes of incubation, axoplasms were transferred, along with perfusion buffer, to low protein binding 1.5 ml centrifuge tubes containing 200 μl of homogenization buffer (0.25 mM sucrose, 1 mM EDTA, 10 mM Hepes, pH 7.4, 1/100 protease inhibitor cocktail (Sigma), 1/200 phosphatase inhibitor cocktail set II (Calbiochem), 2 μM K252a (Calbiochem), 1 μM PKI (Upstate, Lake Placid, N.Y.)), and carefully homogenized by two passages through a 23-G syringe needle and five passages through a 27-G syringe needle using a 1-ml Hamilton pipette. Axoplasm homogenates were adjusted to 30% iodixanol by mixing 200 μl of axoplasm homogenates with 300 μl of solution D (50% (w/v) iodixanol, 10 mM MgCl2 in 250 mM sucrose). […] Samples were centrifuged at 250,000 g max for 1 hour at 4° C. in an RP55-S SORVALL rotor. Three hundred microliters containing floating vesicles were collected from immediately below the 5% iodixanol interface, and 60 μl of 6× loading sample buffer was added.
To determine whether tau filaments induce the dissociation of kinesin-1 from cargo, “sister” axoplasms were obtained from individual animals and treated with monomeric or filamentous hTau40 (2 μM). […] After 40 minutes of incubation, axoplasmic vesicle fractions were isolated and kinesin-1 levels were evaluated with an antibody against KHCs. […]

[2] = test system: endogenous squid microtubules; assay: Microtubule-binding (sedimentation) assay; details: 5 μM tau construct, squid optic lobe cytosol
[3] = molecular target: PP2A (Homo sapiens, UniProt P67775); details: even at micromolar concentrations; cited from earlier work
[4] = test system: fast axonal transport (FAT) in isolated squid axoplasm; assay: Squid axoplasm motility assays (vesicle motility); format: cell-based, Loligo pealii; details: for prevention of 2-18 peptide-induced anterograde FAT inhibition: co-perfused with 2-18 peptide; for prevention of 2-18 peptide-induced anterograde FAT inhibition / prevention of 6D tau-mediated anterograde FAT inhibition: I-2 50 nM; for prevention of 6D tau-mediated anterograde FAT inhibition: co-perfused with 6D tau, okadaic acid 200 nM; for effect on anterograde FAT rates / effect on retrograde FAT rates: perfused into isolated squid axoplasm; for effect on anterograde FAT rates: 2 μM; for effect on FAT (axonal transport): perfused alone into squid axoplasm (tau 2 μM; ING-135 100 nM)
[5] = test system: squid microtubules; assay: Microtubule morphology at axoplasm periphery after perfusion; format: cell-based; details: 2 μM perfused into axoplasm
Description: Microtubule rigidity is increased when tau binds to the microtubule surface, and this effect is observable even at low, nonsaturating tau concentrations (Feigner, et al. (1997) J. Cell Biol. 138:1067-1075; Morfini, et al. (2007) supra). As an additional indicator of hTau40's ability to interact with squid microtubules, axoplasm was perfused with tau and the morphology of microtubules at the axoplasm periphery was examined.

[6] = Tau polymerization with arachidonic acid, electron microscopy; format: physicochemical; details: 4 μM tau, 75 μM arachidonic acid
Protocol: Tau polymerization was induced using AA according to known methods (King, et al. (1999) Biochemistry 38:14851-14859), except that KCl was substituted for NaCl in the polymerization buffer. […] Briefly, tau protein (4 μM) was incubated at room temperature in reaction buffer (50 mM HEPES, pH 7.6, 50 mM KCl, 5 mM DTT) in the presence of 75 μM AA (in ethanol vehicle). Samples of soluble tau were prepared for perfusion in the same manner, except that arachidonic acid was excluded from the polymerization buffer. Control mixtures containing AA but lacking tau were prepared in parallel. Final ethanol concentration in all samples was 3.8%.
Polymerization reactions were allowed to proceed for 6 hours, fixed with 2% glutaraldehyde, spotted onto 300 mesh formvar/carbon-coated copper grids (Electron Microscopy Sciences, Hatfield, Pa.), and negatively stained with 2% uranyl acetate (King, et al. (1999) supra). […]
To determine whether these domains are involved in FAT inhibition, two tau constructs were assayed, Δ2-18 and 1-421, containing deletions at the extreme amino- and carboxy-termini, respectively. […] Therefore, the formation of tau filaments under these experimental conditions was assessed by electron microscopic analysis.

[7] = molecular target: T1, fyn kinase (Homo sapiens, UniProt P06241); assay: In vitro phosphorylation of tau by fyn kinase; format: biochemical; details: compared to wild-type tau; 1 μM tau
T1 construct: purchased Millipore
Protocol: Samples were heated to 60° C. for 5 minutes and separated on 10% acrylamide gels via SDS-PAGE. The proteins were transferred to nitrocellulose membranes, blocked in 2% non-fat dry milk Tris-buffered saline (NFDM-TBS; Tris 50 mM, NaCl 150 mM, pH 7.4). The membranes were incubated in primary antibodies (R1-1:300,000 and 9G3-1:8000) overnight at 4° C. The next day, the membranes were rinsed in TBS+0.1% TWEEN 20 and then incubated in the appropriate secondary antibody (1:5000; diluted in 2% NFDM-TBS). Immunoreactivity was visualized using ECL solution and the level of reactivity was quantified by measuring the optical density of immunoreactive bands with ImageJ software (v1.41, NIH). The average pixel intensities of the main tau bands were measured. Data are expressed as the ratio of 9G3 intensity to R1 intensity (error bars—s.e.m.).
Phosphorylation was carried out at 32° C. for […]. Samples were diluted 1:1 in 2× Laemmli buffer at 0, 10, 20, 40, and 60 minutes to stop the reaction. Samples were stored at −20° C. until used for immunoblotting.
Fyn kinase is a non-receptor tyrosine kinase known to phosphorylate tau at Tyr18 and phosphoTyrl8 (pTyr18) and is found in tau inclusions of AD brains (Lee, et al. (2004) supra). Phosphorylation at Tyr18 by fyn kinase prevents tau-mediated inhibition of anterograde FAT in squid axoplasm.

[8] = test system: fast axonal transport (FAT) in isolated squid axoplasm; details: cited from earlier work
[9] = coperfused with hTau40 filaments (2 μM), SB203580 5 μM, CREBpp 0.5 mM, ING-135 100 nM, okadaic acid 100 nM, inhibitor-2 50 nM

T1 sequence (P06241 whole entry): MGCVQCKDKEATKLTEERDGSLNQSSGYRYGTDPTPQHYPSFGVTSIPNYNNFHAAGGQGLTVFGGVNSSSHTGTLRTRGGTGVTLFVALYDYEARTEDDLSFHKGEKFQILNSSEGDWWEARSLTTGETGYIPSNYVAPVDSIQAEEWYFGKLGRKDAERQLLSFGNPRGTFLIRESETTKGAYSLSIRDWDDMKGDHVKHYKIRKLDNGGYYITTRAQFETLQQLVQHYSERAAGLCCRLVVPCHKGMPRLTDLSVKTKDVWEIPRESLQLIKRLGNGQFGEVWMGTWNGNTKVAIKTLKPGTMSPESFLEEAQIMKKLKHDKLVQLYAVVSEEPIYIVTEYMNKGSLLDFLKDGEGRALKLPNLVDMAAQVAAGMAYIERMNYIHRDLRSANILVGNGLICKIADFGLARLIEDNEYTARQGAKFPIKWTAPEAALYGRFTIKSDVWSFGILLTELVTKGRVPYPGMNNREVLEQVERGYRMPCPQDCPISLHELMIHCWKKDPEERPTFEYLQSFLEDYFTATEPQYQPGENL
Chain of PP2A (P67775 whole entry, the tested form may be a part): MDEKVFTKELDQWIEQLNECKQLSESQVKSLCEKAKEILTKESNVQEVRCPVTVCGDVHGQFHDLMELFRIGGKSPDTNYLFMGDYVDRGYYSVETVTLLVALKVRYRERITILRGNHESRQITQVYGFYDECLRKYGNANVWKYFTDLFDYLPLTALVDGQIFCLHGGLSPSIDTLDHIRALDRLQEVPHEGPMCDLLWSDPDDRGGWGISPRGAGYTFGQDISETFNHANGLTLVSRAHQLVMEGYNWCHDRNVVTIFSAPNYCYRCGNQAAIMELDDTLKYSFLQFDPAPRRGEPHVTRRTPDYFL

With “active GSK-3β: recombinant, active GSK-3β from Sigma [reference compound]” the “levels of dynein intermediate chain on vesicles” value [1] was “unaffected”.
With “K23: tau construct lacking both alternatively spliced N-terminal exons and all four MTBRs [reference compound]” the “sedimentation with taxol-assembled squid microtubules (supernatant vs pellet)” value [2] was “remained in the supernatant fraction”.
For inhibitor-2 [reference compound], the “effect on PP2A” value [3] is given as “has no effect”, the “prevention of 2-18 peptide-induced anterograde FAT inhibition” value ([4]; ING-135 100 nM) is given as “completely prevented” and the “prevention of 6D tau-mediated anterograde FAT inhibition” value ([4]; ING-135 100 nM) is given as “complete prevention”. For the same molecule, the “block of tau filament-induced inhibition of anterograde FAT” value [4, 9] was “prevented FAT inhibition”.
In the case of AEPRQEFEVMEDHAGTY [2-18 peptide], the “effect on anterograde FAT rates” value [4] is reported as “induced a significant inhibition” and the “effect on anterograde FAT rates” value ([4]; listed as PAD) is reported as “inhibit”.
With `Cn1cc(C2=C(c3coc4ccccc34)C(=O)NC2=O)c2cc(Br)ccc21` [ING-135, reference compound] the “prevention of 2-18 peptide-induced anterograde FAT inhibition” value ([4]; ING-135 100 nM) was “completely prevented”, the “prevention of 6D tau-mediated anterograde FAT inhibition” value ([4]; ING-135 100 nM) was “completely blocked” and the “block of tau filament-induced inhibition of anterograde FAT” value [4, 9] was “blocked”. For the same molecule, the “effect on FAT (axonal transport)” value [4] was “had no effect”.
With `C[S+]([O-])c1ccc(-c2nc(-c3ccncc3)c(-c3ccc(F)cc3)[nH]2)cc1` (centres unmarked) [SB203580, reference compound] the “block of tau filament-induced inhibition of anterograde FAT” value [4] was “did not block”.
For “hTau40 filaments: recombinant hTau40 polymerized into filaments with arachidonic acid”, the “levels of dynein intermediate chain on vesicles” value [1] was “unaffected”, the “effect on FAT (axonal transport)” value [4] was “inhibition” and the “effect on retrograde FAT rates” value [4] was “remained unaffected”. The “effect on anterograde FAT rates” value [4] was “inhibited”, the “effect on anterograde FAT rates” value ([4]; listed as hTau40 F) was “significantly reduced” and the “effect on anterograde FAT rates” value ([4]; listed as tau filaments) was “inhibit”. The “morphology of peripheral microtubules” value [5] was “did not produce changes in microtubule morphology”.
For “monomeric hTau40: full-length tau, longest isoform in adult human brain, 441 amino acids, soluble monomer”, the “filament formation under axoplasm perfusion buffer conditions” value [6] was “form morphologically indistinguishable filaments”, the “effect on FAT (axonal transport)” value ([4]; listed as full-length wild-type tau monomers) was “had no effect” and the “effect on FAT (axonal transport)” value ([4]; listed as soluble tau) was “does not affect”. The “effect on retrograde FAT rates” value [4] was “no effect”, the “effect on anterograde FAT rates” value [4] was “no effect” and the “morphology of peripheral microtubules” value [5] was “caused peripheral microtubules to acquire a straight, rigid appearance”. The “sedimentation with taxol-assembled squid microtubules (supernatant vs pellet)” value [2] was “depleted from the supernatant fraction and found in association with the microtubule-enriched pellet fraction”.
In the case of “AT8 tau: tau with Ser199, Ser202, Thr205 mutated to glutamic acid, AT8 pseudophosphorylated mutant”, the “effect on retrograde FAT rates” value [4] is reported as “unaffected”, the “effect on anterograde FAT rates” value [4] is reported as “significantly reduced” and the “maximal level of phosphorylation at Tyr18 by fyn kinase” value [7] is reported as “lower”. The “rate of phosphorylation at Tyr18 by fyn kinase” value [7] was “slower”.
In the case of `C=C1[C@@H](O)[C@@H]2O[C@]3(CC[C@H](/C=C/[C@@H](C)[C@@H]4CC(C)=C[C@@]5(O[C@H](C[C@@](C)(O)C(=O)O)CC[C@H]5O)O4)O3)CC[C@H]2O[C@@H]1[C@@H](O)C[C@H](C)[C@H]1O[C@@]2(CCCCO2)CC[C@H]1C` [okadaic acid, reference compound], the “effect on FAT, perfused alone” value ([8]; okadaic acid alone, concentrations up to 1 μM) is given as “have no effect”, the “prevention of 6D tau-mediated anterograde FAT inhibition” value ([4]; ING-135 100 nM) is given as “abolished” and the “prevention of 6P tau-mediated anterograde FAT inhibition” value ([4]; co-perfused with 6P tau) is given as “The same effect was noted”. For the same molecule, the “block of tau filament-induced inhibition of anterograde FAT” value [4, 9] was “blocked”.
For “KRREILSRRPpSYR (KRREILSRRP[pS]YR) [CREBpp, reference compound]”, the “effect on FAT, perfused alone” value ([8]; CREBpp alone in squid axoplasm) is given as “has no effect”, the “block of effects of 1-421 tau filaments on FAT” value ([4]; coperfused with 1-421 tau filaments) is given as “also blocked” and the “block of tau filament-induced inhibition of anterograde FAT” value [4, 9] is given as “blocked”.
